# Source: US12059425B2, “Heterocyclic compounds and uses thereof” (Kumquat Biosciences Inc., priority 2022, dated 2024)
# How the values were obtained:
# wildtype K-Ras = molecular target: T1, wildtype K-Ras (Homo sapiens, UniProt P01116); assay: PPI-HTRF assay, wildtype K-Ras / SOS1 interaction; type: biochemical; conditions: HTRF, K-Ras wt; read-out: PPI-HTRF-5 nM (K-Ras wt IC50)
# T1 construct: made in house; host or cells: E. coli, e.g. BL21 (DE3)
# Summary of the method: (§1)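 Compound in DMSO is dispensed first, then GST-K-Ras plus anti-GST-Eu(K), then His-hSOS1 plus anti-6His-XL665. Plates incubate about 10 min or longer before HTRF measurement at 620 and 665 nm. IC50 values are derived from the emission ratio for each K-Ras variant.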
# K-Ras G12D = molecular target: T2, K-Ras G12D (Homo sapiens, UniProt P01116, G12D); assay: PPI-HTRF assay, K-Ras G12D / SOS1 interaction; type: biochemical; conditions: HTRF, K-Ras G12D; read-out: PPI-HTRF-5 nM (K-Ras G12D IC50)
# T2 construct: made in house; host or cells: E. coli, e.g. BL21 (DE3)
# Summary of the method: as §1
# SW620 cells = assay: Ras cellular assay, cell proliferation SW620; type: cell-based; conditions: Homo sapiens, SW-620
# Excerpt: (§2) For example, this assay can be also used to assess selective growth inhibition of a mutant Ras protein relative to a wildtype, or relative to a different mutant Ras protein.
# A549 cells = assay: Ras cellular assay, cell proliferation A549; type: cell-based; conditions: Homo sapiens
# Method: as §2
# A549 (ATCC CRL-185) and LS123 (ATCC CRL-255) cell lines comprise a G12S mutation and can be used to assess Ras cellular signaling in vitro, e.g., in response to treatment with a compound described herein. A549 culture medium is prepared with RPMI-1640 and 10% heat-inactivated FBS. LS123 culture medium is prepared with RPMI-1640 and 10% heat-inactivated FBS. A CellTiter-Glo (CTG) luminescent based assay (Promega) is used to assess growth of the cells, as a measurement of the ability of the compounds herein to inhibit Ras signaling in the cells. The cells (e.g., 800 per well) are seeded in their respective culture medium in standard tissue culture-treated 384-well format plates (Falcon #08-772-116) or ultra-low attachment surface 384-well format plates (S-Bio #MS-9384WZ). The day after plating, cells are treated with a dilution series (e.g., a 10 point, 3-fold dilution series) of the compounds herein (e.g., approximately 40 μL final volume per well). Cell viability can be monitored (e.g., approximately 6 days later) according to the manufacturer's recommended instructions, where CellTiter-Glo reagent is added (e.g., approximately 10 μL), vigorously mixed, covered, and placed on a plate shaker (e.g., approximately for 20 min) to ensure sufficient cell lysis prior to assessment of luminescent signal. The IC50 values are determined using the four parameter fit. The resulting IC50 value is a measurement of the ability of the test compound to reduce cell growth of Ras-driven cells (e.g., tumor cell lines) in vitro and/or in vivo.
# GP2D cells = assay: Ras cellular assay, cell proliferation GP2D; type: cell-based
# Method: as §2
# ASPC-1 (ATCC CRL-1682), Panc-10.05 (ATCC CRL-2547), A427, GP2d cell lines or any other cell lines comprising a G12D mutation can be used to assess Ras cellular signaling in vitro, e.g., in response to a compound described herein. For example, ASPC-1 culture medium is prepared with RPMI-1640 and 10% heat-inactivated FBS. Panc-10.05 culture medium is prepared with RPMI-1640, 10 Units/mL human recombinant insulin, and 10% FBS. A427 cell culture is prepared with RPMI-1640 and 10% heat-inactivated FBS. A CellTiter-Glo (CTG) luminescent based assay (Promega) is used to assess growth of the cells, as a measurement of the ability of the compounds herein to inhibit Ras signaling in the cells. The cells (e.g., 800 per well) are seeded in their respective culture medium in standard tissue culture-treated 384-well format plates (Falcon #08-772-116) or ultra-low attachment surface 384-well format plates (S-Bio #MS-9384UZ). The day after plating, cells are treated with a dilution series (e.g., a 9 point 3-fold dilution series) of the compounds herein (e.g., approximately 40 μL final volume per well). Cell viability can be monitored (e.g., approximately 5 days later) according to the manufacturer's recommended instructions, where the CellTiter-Glo reagent is added (e.g., approximately 10 μL), vigorously mixed, covered, and placed on a plate shaker (e.g., approximately for 20 min) to ensure sufficient cell lysis prior to assessment of luminescent signal. The IC50 values are determined using the four parameter fit. The resulting IC50 value is a measurement of the ability of the test compound to reduce cell growth of Ras-driven cells (e.g., tumor cell lines) in vitro and/or in vivo.
# K-Ras G12S = molecular target: T3, K-Ras G12S (Homo sapiens, UniProt P01116, G12S); assay: PPI-HTRF assay, K-Ras G12S / SOS1 interaction; type: biochemical; conditions: read-out: PPI-HTRF-5 nM (K-Ras G12S IC50)
# T3 construct: made in house; host or cells: E. coli, e.g. BL21 (DE3)
# Summary of the method: as §1
# K-Ras G12V = molecular target: T4, K-Ras G12V (Homo sapiens, UniProt P01116, G12V); assay: PPI-HTRF assay, K-Ras G12V / SOS1 interaction; type: biochemical; conditions: HTRF, K-Ras G12V; read-out: PPI-HTRF-5 nM (K-Ras G12V IC50)
# T4 construct: made in house; host or cells: E. coli, e.g. BL21 (DE3)
# Summary of the method: as §1
# T4 sequence (P01116 1-188 isoform P01116-2 G12V): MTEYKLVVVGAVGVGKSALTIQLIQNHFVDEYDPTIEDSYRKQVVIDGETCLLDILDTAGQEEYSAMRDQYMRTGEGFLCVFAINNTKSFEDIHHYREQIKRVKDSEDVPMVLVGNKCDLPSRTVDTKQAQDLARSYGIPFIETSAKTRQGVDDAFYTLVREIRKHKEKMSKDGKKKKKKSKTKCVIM
# T3 sequence (P01116 1-188 isoform P01116-2 G12S): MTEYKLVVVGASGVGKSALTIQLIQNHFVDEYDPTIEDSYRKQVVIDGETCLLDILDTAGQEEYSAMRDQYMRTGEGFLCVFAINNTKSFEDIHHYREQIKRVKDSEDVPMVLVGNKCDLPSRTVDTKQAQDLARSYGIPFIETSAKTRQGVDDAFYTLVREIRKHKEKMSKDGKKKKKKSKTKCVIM
# T2 sequence (P01116 1-188 isoform P01116-2 G12D): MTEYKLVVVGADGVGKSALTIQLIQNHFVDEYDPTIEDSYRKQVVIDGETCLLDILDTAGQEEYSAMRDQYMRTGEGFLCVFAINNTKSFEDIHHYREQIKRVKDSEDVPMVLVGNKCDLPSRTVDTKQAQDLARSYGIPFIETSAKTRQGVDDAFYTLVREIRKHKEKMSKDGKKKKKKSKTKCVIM
# T1 sequence (P01116 1-188 isoform P01116-2): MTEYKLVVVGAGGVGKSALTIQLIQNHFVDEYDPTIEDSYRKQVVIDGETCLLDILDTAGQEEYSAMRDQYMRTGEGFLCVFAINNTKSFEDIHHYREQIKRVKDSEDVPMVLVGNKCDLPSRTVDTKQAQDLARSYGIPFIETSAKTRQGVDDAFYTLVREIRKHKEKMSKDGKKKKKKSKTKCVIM
SMILES,IC50 (wildtype K-Ras),IC50 (K-Ras G12D),IC50 (SW620 cells),IC50 (A549 cells),IC50 (GP2D cells),IC50 (K-Ras G12S),IC50 (K-Ras G12V)
"N#Cc1c(N)sc2c(F)ccc(-c3c(Cl)c4c5c(nc(OC[C@@]67CCCN6C[C@H](F)C7)nc5c3F)N3CCN(C=O)CCC3CO4)c12 (stereo partly drawn) [compound 152, 2-amino-4-(12-chloro-10-fluoro-8-(((2R,7aS)-2-fluorotetrahydro-1H-pyrrolizin-7a(5H)-yl)methoxy)-3-formyl-2,3,4,5,14,14a-hexahydro-1H-[1,4]diazepino[7′,1′:3,4][1,4]oxazepino[5,6,7-de]quinazolin-11-yl)-7-fluorobenzo[b]thiophene-3-carbonitrile]",< 5 µM,< 5 µM,< 5 µM,< 5 µM,< 5 µM,< 5 µM,< 5 µM
"N#Cc1c(N)sc2c(F)ccc(-c3c(Cl)c4c5c(nc(OC[C@@]67CCCN6C[C@H](F)C7)nc5c3F)N3CCC[C@@H]3CCO4)c12 [compound 143, 2-amino-4-((13aR)-10-chloro-8-fluoro-6-(((2R,7aS)-2-fluorotetrahydro-1H-pyrrolizin-7a(5H)-yl)methoxy)-1,2,3,12,13,13a-hexahydropyrrolo[1′,2′:5,6][1,5]oxazocino [4,3,2-de]quinazolin-9-yl)-7-fluorobenzo[b]thiophene-3-carbonitrile]",< 5 µM,< 5 µM,< 5 µM,< 5 µM,,< 5 µM,< 5 µM
"N#Cc1c(N)sc2c(F)ccc(-c3c(Cl)c4c5c(nc(OCC67CCCN6C[C@H](F)C7)nc5c3F)N3CCCCC3CCO4)c12 (single isomer, unassigned) [compound 117]",< 5 µM,,< 5 µM,< 5 µM,,< 5 µM,< 5 µM
"N#Cc1c(N)sc2c(F)ccc(-c3c(Cl)c4c5c(nc(OC[C@@]67CCCN6C[C@H](F)C7)nc5c3F)N3CC5(CCN5C(=O)n5cncn5)CC3CO4)c12 (stereo partly drawn) [compound 131, 2-Amino-4-(10′-chloro-8′-fluoro-6′-(((2R,7aS)-2-fluorotetrahydro-1H-pyrrolizin-7a(5H)-yl)methoxy)-1-(1H-1,2,4-triazole-1-carbonyl)-12′,12a′-dihydro-1′H,3′H-spiro[azetidine-2,2′-pyrrolo[2′,1′:3,4][1,4]oxazepino[5,6,7-de]quinazolin]-9′-yl)-7-fluorobenzo[b]thiophene-3-carbonitrile]",< 5 µM,,< 5 µM,< 5 µM,,< 5 µM,< 5 µM
"CN(C)CCCN1c2nc(OC[C@@]34CCCN3C[C@H](F)C4)nc3c(F)c(-c4ccc(F)c5sc(N)c(C#N)c45)c(Cl)c(c23)OCC2COCC21 (stereo partly drawn) [compound 209, 2-amino-4-(6-chloro-12-(3-(dimethylamino)propyl)-4-fluoro-2-(((2R,7aS)-2-fluorotetrahydro-1H-pyrrolizin-7a(5H)-yl)methoxy)-8a,9,11a,12-tetrahydro-8H,11H-furo[3′,4′:6,7][1,5]oxazocino[4,3,2-de]quinazolin-5-yl)-7-fluorobenzo[b]thiophene-3-carbonitrile]",< 5 µM,< 5 µM,< 5 µM,,< 5 µM,< 5 µM,< 5 µM
"N#Cc1c(N)sc2c(F)ccc(-c3c(Cl)c4c5c(nc(OC[C@@]67CCCN6C[C@H](F)C7)nc5c3F)N3CCC(C#N)CC3CO4)c12 (single isomer, unassigned) [compound 105]",< 5 µM,,< 5 µM,< 5 µM,,< 5 µM,< 5 µM
"N#Cc1c(N)sc2c(F)ccc(-c3c(Cl)c4c5c(nc(OC[C@@]67CCCN6C[C@H](F)C7)nc5c3F)N(CC(F)F)CC3COCC3O4)c12 (stereo partly drawn) [compound 112, 2-amino-4-(1-chloro-7-(2,2-difluoroethyl)-3-fluoro-5-(((2R,7aS)-2-fluorotetrahydro-1H-pyrrolizin-7a(5H)-yl)methoxy)-7,8,8a,9,11,11a-hexahydrofuro[3′,4′:7,8][1,5]oxazocino [4,3,2-de]quinazolin-2-yl)-7-fluorobenzo[b]thiophene-3-carbonitrile]",< 5 µM,< 5 µM,< 5 µM,,> 5 µM,< 5 µM,< 5 µM
"CN1c2nc(OC[C@@]34CCCN3C[C@H](F)C4)nc3c(F)c(-c4ccc(F)c5sc(N)c(C#N)c45)c(Cl)c(c23)OCC2CCCC21 (stereo partly drawn) [compound 110, 2-amino-4-(6-chloro-4-fluoro-2-(((2R,7aS)-2-fluorotetrahydro-1H-pyrrolizin-7a(5H)-yl)methoxy)-12-methyl-8a,9,10,11,11a,12-hexahydro-8H-cyclopenta[6,7][1,5]oxazocino[4,3,2-de]quinazolin-5-yl)-7-fluorobenzo[b]thiophene-3-carbonitrile]",< 5 µM,,< 5 µM,> 5 µM,> 5 µM,< 5 µM,< 5 µM
"CNC1CCN2c3nc(OC[C@@]45CCCN4C[C@H](F)C5)nc4c(F)c(-c5ccc(F)c6sc(N)c(C#N)c56)c(Cl)c(c34)OCCC2C1 (stereo partly drawn) [compound 158, 2-amino-4-(3-chloro-1-fluoro-13-(((2R,7aS)-2-fluorotetrahydro-1H-pyrrolizin-7a(5H)-yl)methoxy)-8-(methylamino)-6,6a,7,8,9,10-hexahydro-5H-pyrido[11,2′:5,6][1,5]oxazocino[4,3,2-de]quinazolin-2-yl)-7-fluorobenzo[b]thiophene-3-carbonitrile]",< 5 µM,< 5 µM,< 5 µM,,> 5 µM,< 5 µM,< 5 µM
"N#CCC1CCN2c3nc(OC[C@@]45CCCN4C[C@H](F)C5)nc4c(F)c(-c5ccc(F)c6sc(N)c(C#N)c56)c(Cl)c(c34)OCC2C1 (single isomer, unassigned) [compound 156]",< 5 µM,< 5 µM,< 5 µM,< 5 µM,,< 5 µM,< 5 µM
"CC(CN(C)C)N1c2nc(OC[C@@]34CCCN3C[C@H](F)C4)nc3c(F)c(-c4ccc(F)c5sc(N)c(C#N)c45)c(Cl)c(c23)OCC2COCC21 (stereo partly drawn) [compound 102, 2-amino-4-(6-chloro-12-(1-(dimethylamino)propan-2-yl)-4-fluoro-2-(((2R,7aS)-2-fluorotetrahydro-1H-pyrrolizin-7a(5H)-yl)methoxy)-8a,9,11a,12-tetrahydro-8H,11H-furo[3′,4′:6,7][1,5]oxazocino[4,3,2-de]quinazolin-5-yl)-7-fluorobenzo[b]thiophene-3-carbonitrile]",< 5 µM,< 5 µM,> 5 µM,,< 5 µM,< 5 µM,< 5 µM
